In US20230159597A1 (priority 2020, published 2023):
[ ]: non-standard residue; d: D form. The star is where a group is joined. X1 = CC(C)CCC[C@@H](C)[C@H]1CC[C@H]2[C@@H]3CC=C4C[C@@H](OC(=O)C*)CC[C@]4(C)[C@H]3CC[C@]12C; PEG4 = NCCOCCOCCOCCOCCC(=O)O

Experiments:
SARS CoV-2 glycoprotein = SARS CoV-2 glycoprotein (Severe acute respiratory syndrome coronavirus 2, UniProt P0DTC2); experiment: cell-based
SARS-CoV-2 = type: cell-based

Question: With `CC[C@H](C)[C@H](NC(=O)CNC(=O)[C@H](CO)NC(=O)CNC(=O)[C@H](CCCNC(=N)N)NC(=O)[C@H](CCCNC(=N)N)NC(=O)[C@H](CCCNC(=N)N)NC(=O)[C@H](CCC(N)=O)NC(=O)[C@H](CCCNC(=N)N)NC(=O)[C@H](CCCNC(=N)N)NC(=O)[C@H](CCCCN)NC(=O)[C@H](CCCCN)NC(=O)[C@H](CCCNC(=N)N)NC(=O)CNC(=O)[C@H](Cc1ccc(O)cc1)NC(C)=O)C(=O)N[C@@H](CCC(=O)O)C(=O)N1CCC[C@H]1C(=O)N[C@@H](Cc1c[nH]cn1)C(=O)N[C@@H](CC(=O)O)C(=O)N[C@@H](Cc1c[nH]c2ccccc12)C(=O)N[C@H](C(=O)N[C@@H](CCCCN)C(=O)N[C@@H](CC(N)=O)C(=O)N[C@H](C(=O)N[C@H](C(=O)N[C@@H](CC(=O)O)C(=O)N[C@@H](CCCCN)C(=O)N[C@H](C(=O)N[C@@H](CC(=O)O)C(=O)N[C@@H](CCC(N)=O)C(=O)N[C@H](C(=O)N[C@H](C(=O)N[C@@H](Cc1c[nH]cn1)C(=O)N[C@@H](CC(=O)O)C(=O)N[C@@H](Cc1ccccc1)C(=O)N[C@H](C(=O)N[C@@H](CC(=O)O)C(=O)N[C@@H](CCCCN)C(=O)NCC(=O)N[C@@H](CO)C(=O)NCC(=O)N[C@@H](CO)C(=O)NCC(=O)N[C@@H](CSCC(=O)NCCOCCOCCOCCOCCC(=O)O[C@H]1CC[C@@]2(C)C(=CC[C@H]3[C@@H]4CC[C@H]([C@H](C)CCCC(C)C)[C@@]4(C)CC[C@@H]32)C1)C(N)=O)C(C)C)[C@@H](C)CC)[C@@H](C)CC)[C@@H](C)CC)[C@@H](C)O)[C@@H](C)CC)[C@@H](C)O` [TAT-EBO-PEG4-Chol] as the compound, how does the IC50 (ZEBOV Mayinga) read?
Answer: The IC50 was 50 nM.

Question: What about the Max % inh (ZEBOV Mayinga) of the same compound?
Answer: Its Max % inh is 97.9%.

Question: And the IC50 (ZEBOV Gueckedou C07)?
Answer: The IC50 was 20 nM.

Question: What about the Max % inh (ZEBOV Gueckedou C07) of the same compound?
Answer: Its Max % inh is 97.5%.

Question: And the IC50 (Bundibugyo EBOV)?
Answer: The IC50 was 70 nM.

Question: And the Max % inh (Bundibugyo EBOV)?
Answer: Its Max % inh is 98.5%.

Question: How did the IC50 (ZEBOV Mayinga) turn out when `CC[C@H](C)[C@H](NC(=O)CNC(=O)[C@H](CO)NC(=O)CNC(=O)[C@H](CCCNC(=N)N)NC(=O)[C@H](CCCNC(=N)N)NC(=O)[C@H](CCCNC(=N)N)NC(=O)[C@H](CCC(N)=O)NC(=O)[C@H](CCCNC(=N)N)NC(=O)[C@H](CCCNC(=N)N)NC(=O)[C@H](CCCCN)NC(=O)[C@H](CCCCN)NC(=O)[C@H](CCCNC(=N)N)NC(=O)CNC(=O)[C@H](Cc1ccc(O)cc1)NC(C)=O)C(=O)N[C@@H](CCC(=O)O)C(=O)N1CCC[C@H]1C(=O)N[C@@H](Cc1c[nH]cn1)C(=O)N[C@@H](CC(=O)O)C(=O)N[C@@H](Cc1c[nH]c2ccccc12)C(=O)N[C@H](C(=O)N[C@@H](CCCCN)C(=O)N[C@@H](CC(N)=O)C(=O)N[C@H](C(=O)N[C@H](C(=O)N[C@@H](CC(=O)O)C(=O)N[C@@H](CCCCN)C(=O)N[C@H](C(=O)N[C@@H](CC(=O)O)C(=O)N[C@@H](CCC(N)=O)C(=O)N[C@H](C(=O)N[C@H](C(=O)N[C@@H](Cc1c[nH]cn1)C(=O)N[C@@H](CC(=O)O)C(=O)N[C@@H](Cc1ccccc1)C(=O)N[C@H](C(=O)N[C@@H](CC(=O)O)C(=O)N[C@@H](CCCCN)C(=O)NCC(=O)N[C@@H](CO)C(=O)NCC(=O)N[C@@H](CO)C(=O)NCC(=O)N[C@@H](CSCC(=O)NCCOCCOCCOCCOCCC(=O)Oc1c(C)c(C)c2c(c1C)CC[C@@](C)(CCC[C@H](C)CCC[C@H](C)CCCC(C)C)O2)C(N)=O)C(C)C)[C@@H](C)CC)[C@@H](C)CC)[C@@H](C)CC)[C@@H](C)O)[C@@H](C)CC)[C@@H](C)O` [TAT-EBO-PEG4-Toco] was run?
Answer: Its IC50 is 700 nM.

Question: What about the Max % inh (ZEBOV Mayinga) of the same compound?
Answer: Its Max % inh is 96.9%.

Question: What about the IC50 (ZEBOV Gueckedou C07) of the same compound?
Answer: The IC50 was 100 nM.

Question: And the Max % inh (ZEBOV Gueckedou C07)?
Answer: Its Max % inh is 100%.

Question: And the IC50 (Bundibugyo EBOV)?
Answer: Its IC50 is 310 nM.

Question: And the Max % inh (Bundibugyo EBOV)?
Answer: The Max % inh was 100%.

Question: With “Ac-SLTQINTTLLNLEYEMKKLEEVVKKLEESYIDLKELGSG[PEG4]C(X1)-NH2 [MERS lipid-peptide]” as the compound, how does the IC90 (SARS CoV-2 glycoprotein) read?
Answer: The IC90 was 200 nM.

Question: What about the “reduction in SARS-CoV-2 infection” value (SARS-CoV-2) of the same compound?
Answer: Its value is 100%.
